Measurements: publication PMC11053168, “Agonist-selective activation of individual G-proteins by muscarinic receptors” (Scientific Reports, 2024)
Like-named read-outs stand apart in the source and are kept apart here.

Tests used:
M2 muscarinic receptor = biological target: T1, M2 muscarinic receptor (Homo sapiens, UniProt P08172); experiment: [3H]NMS competition binding, membranes from CHO cells expressing M2
T1 construct: membranes
T1 sequence (P08172 1-466): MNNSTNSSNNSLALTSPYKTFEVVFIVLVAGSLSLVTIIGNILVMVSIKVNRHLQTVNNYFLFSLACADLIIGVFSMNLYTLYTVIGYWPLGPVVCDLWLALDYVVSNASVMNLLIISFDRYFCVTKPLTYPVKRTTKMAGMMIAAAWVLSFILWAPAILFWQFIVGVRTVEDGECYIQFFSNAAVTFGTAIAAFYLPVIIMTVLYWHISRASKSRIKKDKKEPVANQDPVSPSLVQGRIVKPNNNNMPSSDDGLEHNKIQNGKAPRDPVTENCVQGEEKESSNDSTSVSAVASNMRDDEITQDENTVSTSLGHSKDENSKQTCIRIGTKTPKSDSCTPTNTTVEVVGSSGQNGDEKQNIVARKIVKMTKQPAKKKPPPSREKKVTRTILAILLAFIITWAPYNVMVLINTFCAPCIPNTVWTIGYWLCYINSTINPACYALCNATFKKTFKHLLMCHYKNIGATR
Protocol: (§1) Cells were cultured as described previously by Randakova et al.[33]. […] The medium was supplemented with 5 mM butyrate for the last 24 h of culture to increase receptor expression. Cells were washed with (phosphate-buffered saline (PBS), mechanically harvested by scraper and centrifugated 1000 × g for 5 min. Cell pellets were kept at − 80 °C.
(§2) Membranes were prepared as described previously by Randakova et al.[33]. Cells harvested from twenty 100 mm petri dishes (CHO) or 30 ml of cell suspension (Sf9) were suspended in 20 ml of ice-cold incubation medium (100 mM NaCl, 20 mM Na-HEPES, 10 mM MgCl2, pH 7.4) supplemented with 10 mM EDTA and homogenized on ice by two 30‐s strokes using a Polytron homogenizer (Ultra-Turrax; Janke & Kunkel GmbH & Co. KG, IKA-Labortechnik, Staufen, Germany) with a 30 s pause between strokes. Cell homogenates were centrifuged for 5 min at 1000×g to remove whole cells and cell nuclei. The resulting supernatants were centrifuged for 30 min at 30,000×g. Pellets were suspended in a fresh incubation medium, incubated on ice for 30 min, and centrifuged again. The resulting membrane pellets were kept at − 80 °C until assayed within 10 weeks.
(§3) Non-specific binding was determined in the presence of 10 μM unlabelled atropine. Incubations were terminated by filtration through filtration plates multiscreen 96 well Harvest (Merck Millipore) using a Brandel cell harvester (Brandel, Gaithersburg, MD, USA). Filtration plates were dried in a microwave oven, and then 40 μl of liquid scintillator Rotiscint eco plus (Roth) was added. The filtration plates were counted in the Microbeta scintillation counter (PerkinElmer). […] The inhibition constant KI was calculated according to Eq. (2).
(§4) Inhibition constants KI were calculated according to Eq. (2).2 KI=IC50/1+D/KD where IC50 is calculated according to Eq.

M5 muscarinic receptor = biological target: T2, M5 muscarinic receptor (Homo sapiens, UniProt P08912); experiment: [3H]NMS competition binding, membranes from CHO cells expressing M5
T2 construct: membranes
T2 sequence (P08912 1-532): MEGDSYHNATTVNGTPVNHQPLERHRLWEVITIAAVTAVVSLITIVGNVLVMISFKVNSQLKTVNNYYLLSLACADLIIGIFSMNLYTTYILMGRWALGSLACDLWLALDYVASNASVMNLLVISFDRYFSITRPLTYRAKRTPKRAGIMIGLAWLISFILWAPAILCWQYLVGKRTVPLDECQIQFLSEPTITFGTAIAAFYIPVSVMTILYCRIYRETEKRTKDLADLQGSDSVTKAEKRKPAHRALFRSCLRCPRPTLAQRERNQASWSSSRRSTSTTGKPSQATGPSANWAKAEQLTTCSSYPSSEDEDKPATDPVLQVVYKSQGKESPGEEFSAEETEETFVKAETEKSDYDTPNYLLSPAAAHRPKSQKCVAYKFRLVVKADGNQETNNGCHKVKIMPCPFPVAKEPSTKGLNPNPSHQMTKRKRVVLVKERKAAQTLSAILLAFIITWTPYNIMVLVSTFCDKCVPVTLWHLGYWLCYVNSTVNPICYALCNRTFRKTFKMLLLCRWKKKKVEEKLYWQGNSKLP
Protocol: as §1, §2, §3, §4

M4 muscarinic receptor = biological target: T3, M4 muscarinic receptor (Homo sapiens, UniProt P08173); experiment: [3H]NMS competition binding, membranes from CHO cells expressing M4
T3 construct: membranes
T3 sequence (P08173 1-479): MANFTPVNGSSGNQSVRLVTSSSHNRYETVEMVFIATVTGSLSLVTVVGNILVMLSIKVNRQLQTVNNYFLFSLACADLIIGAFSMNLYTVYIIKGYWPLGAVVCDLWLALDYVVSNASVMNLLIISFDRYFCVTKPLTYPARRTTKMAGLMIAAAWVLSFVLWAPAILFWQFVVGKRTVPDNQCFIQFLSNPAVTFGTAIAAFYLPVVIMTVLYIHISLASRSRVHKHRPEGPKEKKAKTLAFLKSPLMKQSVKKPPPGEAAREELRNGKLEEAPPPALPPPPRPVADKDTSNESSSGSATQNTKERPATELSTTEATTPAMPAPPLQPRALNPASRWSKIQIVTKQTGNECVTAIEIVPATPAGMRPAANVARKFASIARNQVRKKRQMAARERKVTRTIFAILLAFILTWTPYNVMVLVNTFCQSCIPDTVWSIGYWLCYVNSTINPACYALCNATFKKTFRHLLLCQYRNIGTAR
Protocol: as §1, §2, §3, §4

M1 muscarinic receptor = biological target: T4, M1 muscarinic receptor (Homo sapiens, UniProt P11229); experiment: [3H]NMS competition binding, membranes from CHO cells expressing M1; conditions: competition with [3H]NMS, mean ± SD, three experiments, read-out: Binding affinity, negative logarithm of Ki (converted)
T4 construct: membranes
T4 sequence (P11229 1-460): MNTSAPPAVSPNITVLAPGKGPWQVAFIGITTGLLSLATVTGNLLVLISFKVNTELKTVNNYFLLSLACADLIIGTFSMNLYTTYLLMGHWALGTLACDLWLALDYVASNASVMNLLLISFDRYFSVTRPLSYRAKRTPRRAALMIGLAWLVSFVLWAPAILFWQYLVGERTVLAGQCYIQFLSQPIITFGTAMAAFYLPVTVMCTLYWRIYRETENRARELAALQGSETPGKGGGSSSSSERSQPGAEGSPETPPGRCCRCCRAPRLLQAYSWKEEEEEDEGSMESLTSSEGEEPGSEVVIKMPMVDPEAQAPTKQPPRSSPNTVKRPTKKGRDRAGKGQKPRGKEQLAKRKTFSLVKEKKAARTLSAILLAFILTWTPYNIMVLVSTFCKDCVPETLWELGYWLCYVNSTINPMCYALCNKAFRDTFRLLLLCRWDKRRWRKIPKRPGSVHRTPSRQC
Protocol: as §1, §2, §3, §4

M3 muscarinic receptor = biological target: T5, M3 muscarinic receptor (Homo sapiens, UniProt P20309); experiment: [3H]NMS competition binding, membranes from CHO cells expressing M3; conditions: competition with [3H]NMS, mean ± SD, three experiments, read-out: Binding affinity, negative logarithm of Ki (converted)
T5 construct: membranes
Protocol: as §1, §2, §3, §4

T5 sequence (P20309 whole entry): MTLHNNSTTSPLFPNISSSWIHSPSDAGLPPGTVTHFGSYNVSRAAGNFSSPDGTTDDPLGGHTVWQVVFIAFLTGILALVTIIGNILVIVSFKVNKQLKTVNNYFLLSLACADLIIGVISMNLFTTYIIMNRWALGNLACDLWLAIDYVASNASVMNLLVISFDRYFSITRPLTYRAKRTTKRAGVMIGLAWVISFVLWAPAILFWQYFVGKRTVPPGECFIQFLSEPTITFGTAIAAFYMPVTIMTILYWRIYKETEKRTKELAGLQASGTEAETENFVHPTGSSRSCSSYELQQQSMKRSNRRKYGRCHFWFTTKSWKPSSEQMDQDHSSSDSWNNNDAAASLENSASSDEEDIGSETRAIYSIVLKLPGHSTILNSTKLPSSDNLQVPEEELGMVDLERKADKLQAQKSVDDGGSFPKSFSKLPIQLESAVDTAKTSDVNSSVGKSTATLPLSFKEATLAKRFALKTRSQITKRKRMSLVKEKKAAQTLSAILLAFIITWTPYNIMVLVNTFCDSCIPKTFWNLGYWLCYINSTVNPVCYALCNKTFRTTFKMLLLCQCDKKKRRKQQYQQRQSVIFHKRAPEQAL

Ki (M2 muscarinic receptor; M2, competition with [3H]NMS, mean ± SD, three experiments, read-out: Binding affinity, negative logarithm of Ki (converted))	Ki (M5 muscarinic receptor; M5, competition with [3H]NMS, mean ± SD, three experiments, read-out: Binding affinity, negative logarithm of Ki (converted))	Ki (M4 muscarinic receptor; M4, competition with [3H]NMS, mean ± SD, three experiments, read-out: Binding affinity, negative logarithm of Ki (converted))	SMILES	Ki (M2 muscarinic receptor)	Ki (M5 muscarinic receptor)	Ki (M4 muscarinic receptor)	Ki (M1 muscarinic receptor)	Ki (M3 muscarinic receptor)	Experimental binding affinity relative to JR-6 (M2 muscarinic receptor; M2 (Table 1))
			c1csc(C[N+]23CCC(CC2)CC3)c1 [JB-8A]	3.24 µM	9.33 µM	4.57 µM	6.92 µM	14.8 µM	
			C[N+]1(Cc2cccs2)CCOCC1 [JB-12-2]	17.4 µM	112 µM	17 µM	85.1 µM	93.3 µM	
23.4 µM	468 µM	77.6 µM	COC(=O)C1=CCCN(Cc2cccs2)C1 [JB-13-1]				115 µM	355 µM	
			C[N+]1(Cc2ccc(Cl)s2)CC=CCC1 (stereo not shown) [PN-152, 1-[(5-chlorothiophen-2-yl)methyl]-1-methyl-1,2,3,6-tetrahydropyridin-1-ium]						ten-times higher
